Source: publication PMC12543283, “TastepepAI: An artificial intelligence platform for taste peptide de novo design” (PLOS Computational Biology, 2025)
Several values for one entry are separate records, joined by “and”; a condition that tells them apart may be missing. Equal entries are not always repeated. Ends that are not written are not given here.

Key:
[1] = tested on: human bronchial epithelial cells (BEAS-2B)
Procedure: The cytotoxicity of 73 synthetic peptides was evaluated using four human cell lines: human pancreatic ductal epithelial cells (HPNE), human embryonic kidney cells (HEK293T), human umbilical vein endothelial cells (HUVEC), and human bronchial epithelial cells (BEAS-2B). When cell density reached 70% confluence, the complete culture medium was replaced with serum-free maintenance medium, and peptides were added at a final concentration of 100 μM for 36 h. Control groups received only serum-free maintenance medium without peptides. Cell proliferation was assessed using the CCK-8 assay kit (Solarbio, CA1210) according to the manufacturer’s instructions.

[2] = tested on: human pancreatic ductal epithelial cells (HPNE)
[3] = tested on: human umbilical vein endothelial cells (HUVEC)
[4] = tested on: human embryonic kidney cells (HEK293T)
[5] = Electronic tongue analysis (Taste-Sensing System SA 402B); parameters: unit not given here; conditions: reference solution 30 mM KCl + 0.3 mM tartaric acid as baseline, first measurement excluded; for Umami: sensor AAE; for Umami / Bitter / Sweet: detection threshold 0, room temperature; for Umami / Bitter / Sour / Salty: four replicates; for Sour: detection threshold -13, room temperature; for Salty: detection threshold -6, room temperature; for Sweet: measured five times
How it was run: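 Samples were tested at 0.1 and 1.0 mg/mL on an SA 402B e-tongue fitted with sourness, saltiness, bitterness, sweetness and umami sensors, with 30 mM KCl/0.3 mM tartaric acid as reference and baseline. Thresholds were −13 for sour, −6 for salty and 0 for the rest. Runs at room temperature: four replicates, five for sweetness, first reading discarded.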

## ILEEQ [TaPep29]
[1]
  Average cell viability, BEAS-2B: 114.56
  Cell viability, BEAS-2B, Data1: 114.56
  Cell viability, BEAS-2B, Data2: 111.96
  Cell viability, BEAS-2B, Data3: 117.15
[2]
  Average cell viability, HPNE: 96.81
  Cell viability, HPNE, Data1: 101.03
  Cell viability, HPNE, Data2: 96.44
  Cell viability, HPNE, Data3: 92.95
[3]
  Average cell viability, HUVEC: 98.96
  Cell viability, HUVEC, Data1: 93.24
  Cell viability, HUVEC, Data2: 109.93
  Cell viability, HUVEC, Data3: 93.72
[4]
  Average cell viability, HEK293T: 100.41
  Cell viability, HEK293T, Data1: 100.88
  Cell viability, HEK293T, Data2: 96.44
  Cell viability, HEK293T, Data3: 103.91
[5]; peptide 0.1 mg/mL
  Umami: 1.81
[5]; peptide 1 mg/mL
  Umami: -4.08
[5]; sensor C00, peptide 0.1 mg/mL
  Bitter: 7.69
[5]; sensor C00, peptide 1 mg/mL
  Bitter: 3.20
[5]; sensor CA0, peptide 0.1 mg/mL
  Sour: -3.61
[5]; sensor CA0, peptide 1 mg/mL
  Sour: 10.60
[5]; sensor CT0, peptide 0.1 mg/mL
  Salty: -20.79
[5]; sensor CT0, peptide 1 mg/mL
  Salty: 9.53
[5]; sensor GL1, peptide 0.1 mg/mL
  Sweet: 7.74
[5]; sensor GL1, peptide 1 mg/mL
  Sweet: -5.49

## KADGNR [TaPep4]
[1]
  Average cell viability, BEAS-2B: 96.81
  Cell viability, BEAS-2B, Data1: 99.00
  Cell viability, BEAS-2B, Data2: 95.11
  Cell viability, BEAS-2B, Data3: 96.31
[2]
  Average cell viability, HPNE: 97.84
  Cell viability, HPNE, Data1: 95.76
  Cell viability, HPNE, Data2: 97.39
  Cell viability, HPNE, Data3: 100.36
[3]
  Average cell viability, HUVEC: 105.16
  Cell viability, HUVEC, Data1: 113.12
  Cell viability, HUVEC, Data2: 102.98
  Cell viability, HUVEC, Data3: 99.39
[4]
  Average cell viability, HEK293T: 102.74
  Cell viability, HEK293T, Data1: 102.11
  Cell viability, HEK293T, Data2: 102.49
  Cell viability, HEK293T, Data3: 103.63
[5]; peptide 0.1 mg/mL
  Umami: 1.35
[5]; peptide 1 mg/mL
  Umami: -5.17
[5]; sensor C00, peptide 0.1 mg/mL
  Bitter: 7.74
[5]; sensor C00, peptide 1 mg/mL
  Bitter: 1.90
[5]; sensor CA0, peptide 0.1 mg/mL
  Sour: -2.92
[5]; sensor CA0, peptide 1 mg/mL
  Sour: 13.79
[5]; sensor CT0, peptide 0.1 mg/mL
  Salty: -16.43
[5]; sensor CT0, peptide 1 mg/mL
  Salty: 17.52
[5]; sensor GL1, peptide 0.1 mg/mL
  Sweet: 4.21
[5]; sensor GL1, peptide 1 mg/mL
  Sweet: -5.50

## KGGEV [TaPep68]
[1]
  Average cell viability, BEAS-2B: 104.35
  Cell viability, BEAS-2B, Data1: 106.68
  Cell viability, BEAS-2B, Data2: 113.46
  Cell viability, BEAS-2B, Data3: 92.92
[2]
  Average cell viability, HPNE: 94.11
  Cell viability, HPNE, Data1: 97.24
  Cell viability, HPNE, Data2: 99.23
  Cell viability, HPNE, Data3: 85.86
[3]
  Average cell viability, HUVEC: 103.75
  Cell viability, HUVEC, Data1: 103.54
  Cell viability, HUVEC, Data2: 113.44
  Cell viability, HUVEC, Data3: 94.28
[4]
  Average cell viability, HEK293T: 100.03
  Cell viability, HEK293T, Data1: 100.79
  Cell viability, HEK293T, Data2: 94.92
  Cell viability, HEK293T, Data3: 104.38
[5]; peptide 0.1 mg/mL
  Umami: 0.75
[5]; peptide 1 mg/mL
  Umami: -4.79
[5]; sensor C00, peptide 0.1 mg/mL
  Bitter: 7.39
[5]; sensor C00, peptide 1 mg/mL
  Bitter: 3.94
[5]; sensor CA0, peptide 0.1 mg/mL
  Sour: -1.26
[5]; sensor CA0, peptide 1 mg/mL
  Sour: 12.33
[5]; sensor CT0, peptide 0.1 mg/mL
  Salty: -15.75
[5]; sensor CT0, peptide 1 mg/mL
  Salty: 12.33
[5]; sensor GL1, peptide 0.1 mg/mL
  Sweet: 3.06
[5]; sensor GL1, peptide 1 mg/mL
  Sweet: -4.04

## KGYEAV [TaPep5]
[1]
  Average cell viability, BEAS-2B: 113.59
  Cell viability, BEAS-2B, Data1: 105.38
  Cell viability, BEAS-2B, Data2: 117.75
  Cell viability, BEAS-2B, Data3: 117.65
[2]
  Average cell viability, HPNE: 113.38
  Cell viability, HPNE, Data1: 117.83
  Cell viability, HPNE, Data2: 109.17
  Cell viability, HPNE, Data3: 113.13
[3]
  Average cell viability, HUVEC: 105.38
  Cell viability, HUVEC, Data1: 115.43
  Cell viability, HUVEC, Data2: 105.06
  Cell viability, HUVEC, Data3: 95.64
[4]
  Average cell viability, HEK293T: 97.32
  Cell viability, HEK293T, Data1: 101.17
  Cell viability, HEK293T, Data2: 95.30
  Cell viability, HEK293T, Data3: 95.49
[5]; peptide 0.1 mg/mL
  Umami: 1.93
[5]; peptide 1 mg/mL
  Umami: -5.17
[5]; sensor C00, peptide 0.1 mg/mL
  Bitter: 7.90
[5]; sensor C00, peptide 1 mg/mL
  Bitter: bitterness suppression and -0.10
[5]; sensor CA0, peptide 0.1 mg/mL
  Sour: -4.04
[5]; sensor CA0, peptide 1 mg/mL
  Sour: 12.61
[5]; sensor CT0, peptide 0.1 mg/mL
  Salty: -18.14
[5]; sensor CT0, peptide 1 mg/mL
  Salty: 14.26
[5]; sensor GL1, peptide 0.1 mg/mL
  Sweet: 6.12
[5]; sensor GL1, peptide 1 mg/mL
  Sweet: -5.63
